# Source: patent publication US11302422B2, “Methods and systems for identifying a drug mechanism of action using network dysregulation” (THE TRUSTEES OF COLUMBIA UNIVERSITY IN THE CITY OF NEW YORK, priority 2014, dated 2022)
# pIC50: −log10 of the molar value. “Also recorded” adds a separate entry of the source.
# Columns and labels:
# OCI-LY3 cells = experiment: Mitomycin C dose-response with JAK2 inhibitor TG101348 (CellTiter-Glo); assay type: cell-based, human; conditions: mitomycin C with TG101348 at 0.2, 0.4, 0.6 uM, 48 hrs
# Procedure: The JAK2-selective inhibitor TG101348 and Mitomycin C was purchased from Selleckchem and Tocris Bioscience respectively and were and dissolved in DMSO. OCI-LY3 cells were treated with the indicated compounds in 96-well plates and there growth was determined using the CellTiter-Glo Luminescent Cell Viability Assay (Promega Corp). Typically, 30,000 OCI-Ly3 cells per well in 200 μL of growth medium were grown for 48 hrs in the presence or absence (DMSO alone) of the desired compounds, and then assayed with CellTiter Glo according to manufacturer's instructions.
# U-2932 cells [1] = experiment: Lipid ROS by C11-BODIPY staining and flow cytometry; assay type: cell-based; conditions: BODIPY-C11, versus DMSO
# Procedure: U-2932 cells (2×10^5) were seeded in 6-well plates and incubated at 37° C. for 16 hrs. Cells were treated with test compounds for the indicated time, then harvested, pelleted and washed once with PBS. For lipid ROS detections, cells were re-suspended with Hanks Balanced Salt Solution (HBSS, Life Technologies) containing C11-BODIPY (581/591) (2 μM) (Life Technologies) and incubated for 10 minutes at 37° C. Cells were then pelleted, re-suspended in 500 μL HBSS, strained through […] cell strainer (BD Falcon), and analyzed using BD Accuri C6 flow cytometer (BD Biosciences). C11-BODIPY signal was measured using FL1 channel. Experiments were done in biological triplicates, and a representative result was shown.
# GPX4 = target: T1, GPX4 (Homo sapiens, UniProt P36969); experiment: LC-MS based GPX4 assay (PC-OOH reduction) in lysates of treated cells; assay type: cell-based; conditions: lysates of altretamine treated U-2932 cells versus untreated lysate
# T1 construct: endogenous in cells; host or cells: U-2932 cells (cleared whole-cell lysate)
# T1 sequence (P36969 1-197): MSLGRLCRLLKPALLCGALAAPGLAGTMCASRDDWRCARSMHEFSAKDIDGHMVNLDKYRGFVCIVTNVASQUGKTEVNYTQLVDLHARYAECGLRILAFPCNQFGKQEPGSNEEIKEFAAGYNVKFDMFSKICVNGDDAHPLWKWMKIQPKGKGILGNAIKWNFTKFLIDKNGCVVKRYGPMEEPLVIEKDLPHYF
# Procedure: GPX4 enzymatic activity assay was performed as follows. Briefly, 1×10^6 cells were re-suspended in the cell lysis buffer. Sonication was used to make cell lysates followed by centrifugation at 14,000 rpm for 10 minutes. Protein concentration of the cleared cell lysates was determined using a Bradford protein assay (Bio-Rad). Two hundred micrograms of cellular proteins was mixed with phosphatidyl choline hydroperoxide (PC—OOH), the GPX4 specific substrate, and reduced glutathione, a GPX4 cofactor. The mixture was incubated at 37° C. for 30 minutes followed by lipid extraction using a chloroform:methanol (2:1) solution. The lipid extract was evaporated using a rotary evaporator, and re-dissolved in 100% ethanol before injecting into LC-MS instrument for PC-OOH quantitation.
# U-2932 cells [2] = experiment: Glutathione (GSH) level in treated cells; assay type: cell-based; conditions: 1 mM, 24 hrs, versus DMSO
# Procedure: U-2932 cells were seeded in 10 cm dish (2×10^6/dish) and grown at 37° C. for 16 hrs. Cells were treated with vehicle (0.4% DMSO), 1 mM sulfasalazine (24 hr IC50) or 1 mM altretamine (double the 24 hr IC50), and incubated for 24 hrs. Cells were then harvested, pelleted, washed once with 400 μl ice-cold PBS containing 1 mM EDTA and sonicated. After the debris was pelleted and removed, both oxidized and reduced glutathione in 120 μL of sample was quantified in technical triplicate using QuantiChrome glutathione assay kit (BioAssay Sytems). The glutathione quantity was normalized to protein concentration measured with Bradford assay (Bio-Rad).
# U-2932 cells [3] = experiment: Cell viability, 24 hr IC50; assay type: cell-based; conditions: Homo sapiens, U2932
# Procedure: Compounds were selected based on their activity in a primary screen of FDA-approved, late-stage experimental, and tool compounds. OCI-LY3, OCI-LY7 and U-2932 cells were seeded in white, tissue culture-treated 96-well plates at a density of 5×10^4 cells per well in 100 μL total volume using the Janus automated liquid handling system (Perkin Elmer Inc.). After 12 hrs of incubation at 37° C. the plates were allowed to cool to room temperature prior to compound addition via the Janus. Compounds were transferred as 1 μL of DMSO stock solutions into the assay plates (plate based triplication), which were subsequently placed on an orbital shaker for 5 minutes and then placed back in the incubator. […] Plates were shaken 5 minutes on an orbital shaker before data acquisition in an Envision (PerkinElmer Inc.) (0.5 second read time, enhanced luminescence). IC20 values were determined using IDBS Activity Base utilizing a four parameter fit model.
# U-2932 cells were seeded in 10 cm dish (2×10^6/dish) and grown at 37° C. for 16 hrs. […] After the debris was pelleted and removed, both oxidized and reduced glutathione in 120 μL of sample was quantified in technical triplicate using QuantiChrome glutathione assay kit (BioAssay Sytems). The glutathione quantity was normalized to protein concentration measured with Bradford assay (Bio-Rad).
# U-2-OS cells [4] = experiment: Microtubule network visualised with anti-tubulin antibody; assay type: cell-based; conditions: vincristine 4 nM for 24 hrs, compared to DMSO / non-specific siRNA
# Procedure: Cells were grown on coverslips to ˜50% confluency and treated with compounds for 24 hrs. Cells were fixed with 3.7% formaldehyde solution in PBS for 15-30 minutes followed by washing with PBS 5 times. Cell membrane was permeabilized with 0.2% Triton-X in PBS for 10 minutes and rinsed once with TBS (10 mM Tris [pH 7.5], 150 mM NaCl). The permeabilized sample was blocked with 10% goat serum in TTBS (0.1% Tween-20 in TBS) for 30-60 minutes and washed once with TTBS. The microtubule network was probed with anti-tubulin antibody (Santa Cruz cat #sc-32293) in 1% goat serum in TTBS for 30-60 minutes at room temperature followed by washing in TTBS for 10 minutes. Alexa Fluor anti-mouse antibody (Invitrogen, cat #A-11005) was used as the secondary antibody to visualize the microtubule network using the 60× lens of a confocal microscope.
# U-2-OS cells [5] = experiment: Vincristine dose-response (alamar Blue growth inhibition) after siRNA-mediated gene silencing; assay type: cell-based
# Procedure: Small interfering RNA (siRNA) targeting each specified gene and siControl SMARTpools were obtained from Dharmacon Technologies (see Table 3). Reverse transfection was performed by preparing a solution of 1 mL of Opti-MEM (Invitrogen), […], of Lipofectamine-RNAiMAX reagent (Invitrogen) and 1.25 μL of 10 μM RNAi solution (final working concentration is […]), and incubating the mixture (1 mL/well) in a 6-well dish for 20 minutes at 37° C. U-2-OS cells were detached from culture flask, and re-suspended in 2× serum-containing media at a density of 4×10^5 cells/mL. One mL of cell suspension was transferred to each well containing the transfection mixture, and the 6-well plate was returned to culture incubator. After 48 hrs, cells were detached and reverse transfected again using the same procedures. After 48 hrs, cells were trypsinized and reseeded into 384-well format to determine sensitivity against vincristine. […] Plates were incubated further for 16 hrs to allow reduction of alamar Blue, which results in the generation of red fluorescence. The fluorescence intensity was determined using a Victor 3 plate reader (Perkin Elmer, Inc.), and used to calculated percent growth inhibition.
structure (smiles),measurement,setting,value
CO[C@@]12[C@H](COC(N)=O)C3=C(C(=O)C(C)=C(N)C3=O)N1C[C@@H]1N[C@@H]12 [mitomycin C],effect of JAK2 inhibition on mitomycin C activity (percent cell inhibition),OCI-LY3 cells,"reduction in the sensitivity of the cells; also recorded: significant, dose-dependent antagonism"
Cc1cnc(Nc2ccc(OCCN3CCCC3)cc2)nc1Nc1cccc(S(=O)(=O)NC(C)(C)C)c1 [TG101348],effect of JAK2 inhibition on mitomycin C activity (percent cell inhibition),OCI-LY3 cells,"significant, dose-dependent antagonism"
CN(C)c1nc(N(C)C)nc(N(C)C)n1 [altretamine],lipid-ROS levels,U-2932 cells [1],significantly increases the levels of lipid-ROS; also recorded: induce lipid-ROS accumulation
same,GPX4 activity (residual PC-OOH signal),GPX4,decreases the activity of GPX4; also recorded: displayed a significant [PC—OOH+H^+] signal
same,GSH levels,U-2932 cells [2],indistinguishable from the control; also recorded: did not deplete GSH levels
O=C(O)c1cc(/N=N/c2ccc(S(=O)(=O)Nc3ccccn3)cc2)ccc1O [sulfasalazine],pIC50,U-2932 cells [3],3.00
same,lipid-ROS levels,U-2932 cells [1],significantly increases the levels of lipid-ROS; also recorded: induce lipid-ROS accumulation
same,GSH levels,U-2932 cells [2],reduces the levels of active GSH compared to control
same,GSH levels,U-2932 cells [2]; listed as Sulfasalazine,depletion of GSH levels
CC[C@]1(O)C[C@H]2CN(CCc3c([nH]c4ccccc34)[C@@](C(=O)OC)(c3cc4c(cc3OC)N(C=O)[C@H]3[C@@](O)(C(=O)OC)[C@H](OC(C)=O)[C@]5(CC)C=CCN6CC[C@]43[C@@H]65)C2)C1 [vincristine],effect on microtubule network,U-2-OS cells [4],significantly altered microtubule network
same,change of vincristine sensitivity after CCNB1 silencing,"U-2-OS cells [5]; siRNA targeting CCNB1, 48 hrs vincristine",reduces the cell sensitivity; also recorded: had the opposite effect
same,change of vincristine sensitivity after RPS3A silencing,"U-2-OS cells [5]; siRNA targeting RPS3A, 48 hrs vincristine",reduces the cell sensitivity; also recorded: had the opposite effect
same,change of vincristine sensitivity after VHL silencing,"U-2-OS cells [5]; siRNA targeting VHL, 48 hrs vincristine",increases the sensitivity two-folds; also recorded: more than two-fold
